The record followed here is article PMC6522930, “Design, synthesis and biological activity evaluation of a new class of 2,4-thiazolidinedione compounds as insulin enhancers” (Journal of Enzyme Inhibition and Medicinal Chemistry, 2019).

One data set deals with HUVEC cells. Put plainly: Cell survival experiment (cytotoxicity). To be noted: for Cell survival rate: HUVEC cells. The format is cell-based. As to the method:
(§1) (1) Glucose tolerance test: The healthy mice (20 ± 2 g) were selected. After 1 week of acclimation, mice with no body surface damage, good general condition and flexible reaction were selected for the experiment. The test compounds were dissolved with DMSO, and were given a dose volume of 0.2 ml 10 g^−1, and a dose of 10 mg kg^−1, and given by gavage (oral) once a day. […] The mice were given the drug for 10 d, and after the last dose, the mice fasted for 12 h. The next day, blood was collected from the tail vein of the mice before and after the sugar load for 1 h and 2 h, and the blood glucose level of the mice before and after the sugar load was measured by the glucometer. […] The 12 h of fasting after the last administration, blood was taken from the orbital venous plexus (used to measure the blood glucose level after fasting). Each group was immediately given a subcutaneous injection of 0.2 μg kg^−1 of insulin. After 1 h and 2 h of injection, blood was taken again. (3) Cell survival experiment: The HUVEC cells were inoculated on the 96-well plate at the initial concentration of 3 × 10^3 cells/holes, and 100 μl RPMI 1640 medium were added to each hole. At 5% CO2 and 37 °C cell cultivation in 24 h, every pore solution in different concentrations. […] And determine the hole under 460 nm wavelength absorbance value (A).

Data set [1] can be described thus: Dissociation degree (pKa). The format is physicochemical. From the text:
(§2) Drug in vitro experiment was one of the basic contents to evaluate drugs activity, and it was a necessary approach to research drugs. Drugs’ efficacy was often affected by some physical and chemical properties of compounds, such as lipid–water partition coefficient (log p), and dissociation degree (pKa). […] In Table 1, we could find that target compounds were fat-soluble. The fat-soluble compounds were favourable for drugs absorption, and drugs were easy to enter the cells. […] The pKa will affect the absorption and delivery of the drugs, different environmental (acid and alkalinity) medicine may be different, sometimes exists in the form of ions, sometimes exists in the form of molecules. Usually in the form of ion drugs has no effect. Therefore, it was necessary to study the dissociation degree (pKa) of drugs to study the pharmacodynamics. […] After the physical and chemical properties were studied, the biological activity was studied. […] After that, the target compounds 6a, 6e, 6f, 6g and 6i had good biological activity and were preliminarily screened out for further study on PPARγ receptor agonist activity (Figure 5).

Another data set addresses T1, PPARγ (Homo sapiens, UniProt P37231).
T1 construct: expressed in transfected cells
T1 sequence (P37231 1-505): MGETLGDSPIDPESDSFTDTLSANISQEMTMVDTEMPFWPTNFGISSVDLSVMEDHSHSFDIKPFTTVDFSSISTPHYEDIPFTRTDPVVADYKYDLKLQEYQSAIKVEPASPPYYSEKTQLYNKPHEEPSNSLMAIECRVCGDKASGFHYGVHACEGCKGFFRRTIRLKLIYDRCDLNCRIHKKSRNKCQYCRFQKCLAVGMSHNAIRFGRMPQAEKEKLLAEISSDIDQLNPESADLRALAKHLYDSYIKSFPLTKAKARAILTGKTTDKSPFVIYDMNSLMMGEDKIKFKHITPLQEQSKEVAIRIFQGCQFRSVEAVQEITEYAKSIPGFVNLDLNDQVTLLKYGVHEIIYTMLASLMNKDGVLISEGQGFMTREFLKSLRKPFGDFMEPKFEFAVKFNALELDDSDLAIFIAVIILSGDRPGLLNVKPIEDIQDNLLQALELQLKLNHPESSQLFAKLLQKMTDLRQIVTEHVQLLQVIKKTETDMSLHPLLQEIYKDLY
The data set is described as follows: In vitro activation of PPARγ (cells containing PPAR, EC50). To be noted: n ≥ 8; 24 h; read-out: EC50 ± SD PPARγ. The format is cell-based. As to the method:
(§3) According to the literature, the cells containing PPAR (α, β and γ) were obtained and transfected into 96-well plates the day before for cells culture. Transfection was performed according to the instructions of human PPAR enzyme-linked immunoassay. […] After 24 h, the drugs were added, and 20 μl of MTT was added to each well for another 6 h, and the cell liquid was collected by removing the culture medium, and 150 μl of DMSO was added to each hole. And the absorbance value (A) of each hole was measured under the wavelength of 460 nm.

The nature of data set [2]: Lipid–water partition coefficient (log p). The format is physicochemical.
Source text: as §2

The subject of data set [3] is healthy mice. Put plainly: Insulin tolerance test (blood glucose under insulin load). It counts as in vivo. As to the method: as §1
Data set [4] has as its system healthy mice. The data set is described as follows: Oral glucose tolerance test. The format is in vivo. As to the method:
In vivo experiments, glucose tolerance test, insulin tolerance test, cell survival experiment and acute toxicity were used as the test indicators (Tables 2, [3] and [4]). In Table 2, we chose dose 10 mg kg^−1 d^−1 and used oral administration. […] The mice were given the drug for 10 d, blood was collected from the tail vein of the mice before and after the sugar load for 1 h and 2 h, and the blood glucose level of the mice before and after the sugar load was measured by the glucometer.
as §1

The target of a further data set is T2, PPARα (Homo sapiens, UniProt Q07869).
T2 construct: expressed in transfected cells
T2 sequence (Q07869 1-468): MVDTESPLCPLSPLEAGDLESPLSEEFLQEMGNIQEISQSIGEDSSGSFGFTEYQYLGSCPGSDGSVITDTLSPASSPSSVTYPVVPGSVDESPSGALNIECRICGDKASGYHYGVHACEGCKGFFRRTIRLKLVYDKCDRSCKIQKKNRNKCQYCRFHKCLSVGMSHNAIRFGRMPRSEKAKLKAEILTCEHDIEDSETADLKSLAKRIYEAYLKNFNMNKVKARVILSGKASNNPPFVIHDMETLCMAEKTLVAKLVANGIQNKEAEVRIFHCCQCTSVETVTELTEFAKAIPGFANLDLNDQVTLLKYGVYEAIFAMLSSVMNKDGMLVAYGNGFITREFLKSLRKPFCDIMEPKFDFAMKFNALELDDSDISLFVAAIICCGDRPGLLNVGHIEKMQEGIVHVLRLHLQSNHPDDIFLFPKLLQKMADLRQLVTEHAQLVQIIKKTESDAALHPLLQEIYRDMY
The data set is described as follows: In vitro activation of PPARα (cells containing PPAR, EC50). The format is cell-based. To be noted: n ≥ 8, 24 h; for EC50: read-out: EC50 ± SD PPARα. As to the method:
as §3

Data set [5] in a line: Acute toxicity test (LD50). To be noted: oral administration; n ≥ 3. It counts as in vivo.
In another data set the target is T3, PPARβ (Homo sapiens, UniProt Q03181).
T3 construct: expressed in transfected cells
T3 sequence (Q03181 1-441): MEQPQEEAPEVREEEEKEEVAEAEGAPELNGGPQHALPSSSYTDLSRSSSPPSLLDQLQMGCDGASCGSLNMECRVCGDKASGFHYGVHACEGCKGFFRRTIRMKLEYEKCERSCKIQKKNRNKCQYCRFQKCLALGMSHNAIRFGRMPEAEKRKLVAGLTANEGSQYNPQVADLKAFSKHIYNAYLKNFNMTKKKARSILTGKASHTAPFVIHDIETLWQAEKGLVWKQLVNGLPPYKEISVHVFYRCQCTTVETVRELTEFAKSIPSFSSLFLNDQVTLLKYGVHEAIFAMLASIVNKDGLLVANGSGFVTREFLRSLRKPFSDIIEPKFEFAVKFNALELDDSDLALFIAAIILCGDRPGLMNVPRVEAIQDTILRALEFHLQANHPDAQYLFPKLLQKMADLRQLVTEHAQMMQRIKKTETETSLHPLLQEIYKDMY
The data set is described as follows: In vitro activation of PPARβ (cells containing PPAR, EC50). The format is cell-based. To be noted: n ≥ 8; 24 h; read-out: EC50 ± SD PPARβ. As to the method: as §3

SMILES strings stand for the structures.

The pKa is the negative logarithm of the acid dissociation constant. Low values mean a stronger acid or weaker base, high ones a weaker acid or stronger base. In general, EC50 refers to the concentration needed to bring the measured effect to its halfway point. As a reminder, the logP is a log measure of how a compound divides between an organic and an aqueous phase. Higher therefore signals a more lipophilic compound. Regarding `O=C1NC(=O)C(Cc2ccc(OCCNC(=O)c3ccccc3)cc2)S1` (stereo not drawn) [Compound 6a, N-(2–(4-((2,4-dioxothiazolidin-5-yl)methyl)phenoxy)ethyl) benzamide], in the data set on HUVEC cells (10^−3–10^−2 mol L^−1), the “Cytotoxic effect (in words)” value is reported as “no obvious cytotoxic effect”. Besides, the Cell survival rate amounted to 93.1 ± 1.21% with HUVEC cells (10^−2 mol l^−1); 98.1 ± 0.28% in the data set on HUVEC cells (10^−3 mol l^−1); 99.3 ± 0.26% in the data set on HUVEC cells (10^−4 mol l^−1); 99.9 ± 0.11% with HUVEC cells (10^−5 mol l^−1); 100% in the data set on HUVEC cells (10^−6 mol l^−1). This compound came in with a pKa in data set [1] of 10.4. For the same compound, the EC50 at PPARγ came out at 0.08 ± 0.02 µM. The same compound showed a logP in data set [2] of 2.68. In addition, the “Effect in insulin tolerance test (in words)” value in the data set with healthy mice [3] (10 mg kg^−1 d^−1) was “good resistance activation to insulin”. In addition, the “Blood glucose levels 1 h” value was determined as 1.801 ± 0.531 mmol/L in the data set with healthy mice [3] (10 mg kg^−1 d^−1 for 15 d, 1 h after s.c. insulin 0.2 μg kg^−1) and 6.342 ± 2.011 mmol/L in the data set on healthy mice [4] (10 mg kg^−1 d^−1 oral for 10 d, 1 h after sugar load). The “Blood glucose levels 2 h” value with healthy mice [3] (10 mg kg^−1 d^−1 for 15 d, 2 h after s.c. insulin 0.2 μg kg^−1) amounted to 2.498 ± 1.136 mmol/L; with healthy mice [4] (10 mg kg^−1 d^−1 oral for 10 d, 2 h after sugar load), 3.368 ± 1.341 mmol/L. Also, the “Blood glucose levels 0 h” value was 5.644 ± 1.035 mmol/L in the data set on healthy mice [3] (10 mg kg^−1 d^−1 for 15 d, fasted 12 h, before insulin) and 3.376 ± 0.361 mmol/L in the data set with healthy mice [4] (10 mg kg^−1 d^−1 oral for 10 d, fasted 12 h, before sugar load). The “Effect in glucose tolerance test (in words)” value in the data set with healthy mice [4] (10 mg kg^−1 d^−1 oral, 10 d) was “good resistance activation to glucose”. Moreover, the “EC50 ± SD PPARα” value on PPARα is listed as “ia^b”. Moreover, in [5], the “LD50 ± SD” value was 2313.6 ± 1.26 mg/kg.

In [1], `O=C1NC(=O)C(Cc2ccc(OCCNC(=O)c3ccccc3)cn2)S1` (stereo not drawn) [Compound 6b, N-(2-((6-((2,4-dioxothiazolidin-5-yl)methyl)pyridin-3-yl)oxy)ethyl) benzamide] displayed a pKa of 10.4. Also, the EC50 is 1.29 ± 0.53 µM on PPARγ, 9.18 ± 0.89 µM at PPARβ and 12.9 ± 1.29 µM on PPARα. In data set [2], this compound registered a logP of 1.77.

As for `O=C1NC(=O)C(Cc2ccc(OCCNC(=O)c3ccccn3)cc2)S1` (stereo not drawn) [Compound 6c, N-(2-(4-((2,4-dioxothiazolidin-5-yl)methyl)phenoxy)ethyl) picolinamide], the pKa in [1] worked out at 10. For the same compound, the EC50 on PPARγ was 0.45 ± 0.21 µM; at PPARα, 13 ± 1.56 µM. For the same compound, the logP in data set [2] was determined as 1.92.

With `O=C1NC(=O)C(Cc2ccc(OCCNC(=O)c3ccccn3)cn2)S1` (stereo not drawn) [Compound 6d, N-(2-((6-((2,4-dioxothiazolidin-5-yl)methyl)pyridin-3-yl)oxy)ethyl) picolinamide], in [1], the pKa was 9.78. The EC50 amounted to 3.22 ± 0.65 µM on PPARγ and 12.2 ± 1.21 µM at PPARβ. Further, the logP in data set [2] worked out at 1.38.

Compound `Cc1ccc(C(=O)NCCOc2ccc(CC3SC(=O)NC3=O)nc2)nc1` (stereo not drawn) [Compound 6h, N-(2-((6-((2,4-dioxothiazolidin-5-yl)methyl)pyridin-3-yl)oxy)ethyl)-5-methylpicolinamide] gave a pKa in data set [1] of 9.41. In addition, the values for the EC50 on PPARγ and on PPARα were 0.28 ± 0.13 µM and 10.6 ± 1.86 µM, respectively. Besides, the log partition coefficient (logP) in data set [2] came to 2.01.

For the compound `O=C1NC(=O)C(Cc2ccc(OCCNC(=O)c3ccc(O)cc3)cn2)S1` (stereo not drawn) [Compound 6j, N-(2-((6-((2,4-dioxothiazolidin-5-yl)methyl)pyridin-3-yl)oxy)ethyl)-4-hydroxybenzamide], the pKa in data set [1] came out at 9.01. The results for the EC50 at PPARγ and at PPARβ were 0.34 ± 0.15 µM and 14.5 ± 1.2 µM, respectively. In [2], this compound came in with a logP of 2.11.

`O=C1NC(=O)C(Cc2ccc(OCCNC(=O)c3ccc(O)cn3)cn2)S1` (stereo not drawn) [Compound 6l, N-(2-((6-((2,4-dioxothiazolidin-5-yl)methyl)pyridin-3-yl)oxy)ethyl)-5-hydroxypicolinamide] gave a pKa in data set [1] of 8.58. The EC50 came out at 2.68 ± 0.46 µM at PPARγ, 10.1 ± 1.12 µM on PPARβ and 9.34 ± 1.01 µM at PPARα. The compound further showed a logP in data set [2] of 1.45.
